Measured values from patent US20150329505A1, “A FLUORESCENT COMPOSITION FOR USE IN MARKING OBJECTS, SUCH AS FLOWERS” (BIOCONST PTY LTD, priority 2012, published 2015).
Counter-ions that a name gives are not always drawn. Like-named read-outs stand apart in the source and are kept apart here.

What was measured:
flowers [1] = experiment: Effect of sprayed solutions on wilting and vase life of flowers
Method: (§2) The above solutions were prepared by adding the fluorophore to tap water, in order to test the properties of the fluorophores in a non-sterilised, non-purified aqueous solution. The solutions were placed into a spray device for application to the surface of the relevant plants.
(§3) Solutions were sprayed onto chrysanthemums and roses and allowed to dry overnight at room temperature.

flowers [2] = conditions: in vivo
Method: as §2, §3

[3] = Fluorescence emitted by sprayed flowers when excited by UV light; conditions: 0.1% pyranine, 0.5% sugar, 0.1% sodium bicarbonate, pH 7.72, dried overnight, then 1 mM, 1.5 mM and 2 mM HCl
[4] = Autoclaving of fluorophore solutions; assay type: physicochemical; conditions: 0.5% (w/v) of the sugar, 0.1% pyranine, 0.1% sodium bicarbonate, autoclaved at 121° C.
Method: Fluorophore solution containing sugar caused the increase in growth of bacteria and fungus.
Fluorophore solution was prepared containing 0.1% (w/v) pyranine, 0.5% (w/v) sucrose, 0.1% (w/v) sodium bicarbonate. A similar solution was prepared with the same concentration of fructose. A small quantity of both the solutions prepared was kept aside for future use. Both the solutions were autoclaved at 121° C. in an Atherton Squirrel autoclave. This was then allowed to cool to room temperature and sprayed on flowers. Solutions which were kept aside previously (and which were not auto-claved) were also sprayed onto flowers. A negative control with no spray was also used to monitor vase life.

[5] = Effect of time of UV exposure on fluorescence; assay type: physicochemical; conditions: 0.1% (w/v) sprayed on flowers, 6 hours, UV torch 50,000 μW/cm2
Method: The effect of long term exposure of UV light was tested on flowers sprayed with fluorophore
Flowers were sprayed with 0.1% (w/v) pyranine solution. The flowers were allowed to dry overnight. A UV torch Optimax™ 365, having an intensity of 50,000 μW/cm2 was shone on the sprayed flowers.

chrysanthemum flower = experiment: Uptake of fluorophore by cut flowers; assay type: in vivo; conditions: cut stems in 0.1% (w/v) pyranine, 0.5% (w/v) sucrose overnight
Method: (§1) Freshly cut stems of flowers (roses and chrysanthemums) were prepared and the ends of the stems placed in a solution of 0.1% (w/v) pyranine, 0.5% (w/v) sucrose. The cut end of the flowers was left in the solution overnight and uptake of the fluorophore viewed under UVA light.

rose flower = experiment: Uptake of fluorophore by cut flowers; assay type: in vivo; conditions: cut stems in 0.1% (w/v) pyranine, 0.5% (w/v) sucrose overnight
Method: as §1

O=C([O-])c1ccccc1-c1c2cc(Br)c(=O)c(Br)c-2oc2c(Br)c([O-])c(Br)cc12.[Na+].[Na+] [Eosin Y, reference compound]
wilting of flowers and vase life (flowers [1]; 0.5% (w/v) in tap water, sprayed onto chrysanthemums and roses, dried overnight): caused wilting of flowers and reduced vase life

O=C1OC2(c3ccc(O)cc3Oc3cc(O)ccc32)c2ccccc21 [Fluorescein, reference compound]
wilting of flowers and vase life (flowers [2]): caused wilting of flowers and reduced vase life

Cl [HCl]
change of fluorescence colour after acidic spray [3]: no change in colour to fluorescent blue

O=C(CO)[C@@H](O)[C@H](O)[C@H](O)CO [fructose]
appearance of the solution after autoclaving [4]: dark brown

COC(=O)c1ccc(O)cc1 [methylparaben]
wilting and vase life (flowers [2]): caused wilting of the flowers and reduced the vase-life of the flower

O=S(=O)([O-])c1cc(O)c2ccc3c(S(=O)(=O)[O-])cc(S(=O)(=O)[O-])c4ccc1c2c34.[Na+].[Na+].[Na+] [pyranine, 8-Hydroxypyrene-1,3,6-trisulfonic acid trisodium salt]
vase life of flower (flowers [1]; 0.05% (w/v) in tap water, sprayed onto chrysanthemums and roses): did not affect the vase life of flower | vase life (flowers [1]; 0.05% to 0.5% (w/v) in tap water): did not affect vase life | change of fluorescence on continuous UV exposure [5]: no visible change in the colour of fluorescence | uptake of the fluorophore viewed under UVA light (chrysanthemum flower): The veins in the petals of the flower demonstrate fluorescence | uptake of the fluorophore viewed under UVA light (rose flower): The veins in the petals of the flower demonstrate fluorescence

O=C([O-])O.[Na+] [sodium bicarbonate]
vase life (flowers [2]): did not affect the vase-life of the flower

OC[C@H]1O[C@@](CO)(O[C@H]2O[C@H](CO)[C@@H](O)[C@H](O)[C@H]2O)[C@@H](O)[C@@H]1O [sucrose]
appearance of the solution after autoclaving [4]: fluorescent green
